Assay results from ChEMBL document CHEMBL1201862, “PubChem BioAssay data set” (2004).
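1) Cells in 96-well plates. 2) Compound, 48 h, 5 concentrations. 3) Linear interpolation between surrounding doses. 4) Unreached endpoint = highest concentration. GI50 = concentration required for 50% inhibition of growth.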 Activity calls are given as the source filed them. Cut-off read from the data, not from the text of the source: active = GI50 up to about 1.1 µM and inactive = higher.

Tests used:
Test in all cases: NCI-60 cell line screen, 48 h
[1] = test system: 786-0
[2] = test system: A498
[3] = test system: A549
[4] = test system: ACHN
[5] = test system: CAKI-1
[6] = test system: CCRF-CEM
[7] = test system: COLO 205
[8] = test system: DU-145
[9] = test system: EKVX
[10] = test system: HCC 2998
[11] = test system: HCT-116
[12] = test system: HCT-15
[13] = test system: HOP-62
[14] = test system: HT-29
[15] = test system: Hs-578T
[16] = test system: IGROV-1
[17] = test system: K562
[18] = test system: KM12
[19] = test system: LOX IMVI
[20] = test system: M14
[21] = test system: MCF7
[22] = test system: MDA-MB-231
[23] = test system: MDA-MB-435
[24] = test system: MDA-N
[25] = test system: MOLT-4
[26] = test system: Malme-3M
[27] = test system: NCI-H226
[28] = test system: NCI-H460
[29] = test system: NCI-H522
[30] = test system: NCI/ADR-RES
[31] = test system: OVCAR-3
[32] = test system: OVCAR-4
[33] = test system: OVCAR-5
[34] = test system: OVCAR-8
[35] = test system: PC-3
[36] = test system: RXF 393
[37] = test system: SF-268
[38] = test system: SF-295
[39] = test system: SF-539
[40] = test system: SK-MEL-28
[41] = test system: SK-MEL-2
[42] = test system: SK-MEL-5
[43] = test system: SK-OV-3
[44] = test system: SN12C
[45] = test system: SNB-19
[46] = test system: SNB-75
[47] = test system: SR
[48] = test system: SW-620
[49] = test system: T47D
[50] = test system: U-251
[51] = test system: HL-60
[52] = test system: HOP-92
[53] = test system: NCI-H23
[54] = test system: RPMI-8226
[55] = test system: TK-10
[56] = test system: UACC-257
[57] = test system: UACC-62
[58] = test system: UO-31

CSc1cc(Cl)c(C)cc1S(=O)(=O)NC(=O)NNc1cccc(C(F)(F)F)n1
GI50 [1]: > 100 µM (inactive)
GI50 [2]: > 100 µM (inactive)
GI50 [3]: > 100 µM (inactive)
GI50 [4]: > 100 µM (inactive)
GI50 [5]: > 100 µM (inactive)
GI50 [6]: > 100 µM (inactive)
GI50 [7]: > 100 µM (inactive)
GI50 [8]: > 100 µM (inactive)
GI50 [9]: > 100 µM (inactive)
GI50 [10]: > 100 µM (inactive)
GI50 [11]: > 100 µM (inactive)
GI50 [12]: > 100 µM
GI50 [13]: > 100 µM (inactive)
GI50 [14]: > 100 µM (inactive)
GI50 [15]: > 100 µM (inactive)
GI50 [16]: > 100 µM (inactive)
GI50 [17]: > 100 µM (inactive)
GI50 [18]: > 100 µM (inactive)
GI50 [19]: > 100 µM (inactive)
GI50 [20]: > 100 µM (inactive)
GI50 [21]: > 100 µM (inactive)
GI50 [22]: > 100 µM (inactive)
GI50 [23]: > 100 µM (inactive)
GI50 [24]: > 100 µM (inactive)
GI50 [25]: 20.9 µM (inactive)
GI50 [26]: > 100 µM (inactive)
GI50 [27]: > 100 µM (inactive)
GI50 [28]: > 100 µM (inactive)
GI50 [29]: > 100 µM (inactive)
GI50 [30]: > 100 µM (inactive)
GI50 [31]: > 100 µM (inactive)
GI50 [32]: > 100 µM (inactive)
GI50 [33]: > 100 µM (inactive)
GI50 [34]: > 100 µM (inactive)
GI50 [35]: > 100 µM (inactive)
GI50 [36]: > 100 µM (inactive)
GI50 [37]: > 100 µM (inactive)
GI50 [38]: > 100 µM (inactive)
GI50 [39]: 51.8 µM (inactive)
GI50 [40]: > 100 µM (inactive)
GI50 [41]: > 100 µM (inactive)
GI50 [42]: > 100 µM (inactive)
GI50 [43]: > 100 µM (inactive)
GI50 [44]: > 100 µM (inactive)
GI50 [45]: > 100 µM (inactive)
GI50 [46]: 91.8 µM (inactive)
GI50 [47]: > 100 µM (inactive)
GI50 [48]: > 100 µM (inactive)
GI50 [49]: > 100 µM (inactive)
GI50 [50]: > 100 µM (inactive)

OC(c1cccs1)c1cc2ccccc2s1 (stereo unspecified)
GI50 [1]: > 10 µM (inactive)
GI50 [3]: > 10 µM (inactive)
GI50 [4]: > 10 µM (inactive)
GI50 [5]: > 10 µM (inactive)
GI50 [6]: > 10 µM (inactive)
GI50 [7]: > 10 µM (inactive)
GI50 [8]: > 10 µM (inactive)
GI50 [9]: > 10 µM (inactive)
GI50 [10]: > 10 µM (inactive)
GI50 [11]: > 10 µM (inactive)
GI50 [12]: > 10 µM
GI50 [51]: > 10 µM (inactive)
GI50 [13]: > 10 µM (inactive)
GI50 [52]: > 10 µM (inactive)
GI50 [14]: > 10 µM (inactive)
GI50 [15]: > 10 µM (inactive)
GI50 [16]: > 10 µM (inactive)
GI50 [17]: > 10 µM (inactive)
GI50 [18]: > 10 µM (inactive)
GI50 [19]: > 10 µM (inactive)
GI50 [20]: > 10 µM (inactive)
GI50 [21]: > 10 µM (inactive)
GI50 [22]: > 10 µM (inactive)
GI50 [23]: > 10 µM (inactive)
GI50 [24]: > 10 µM (inactive)
GI50 [25]: > 10 µM (inactive)
GI50 [27]: > 10 µM (inactive)
GI50 [53]: > 10 µM (inactive)
GI50 [28]: > 10 µM (inactive)
GI50 [29]: > 10 µM (inactive)
GI50 [30]: > 10 µM (inactive)
GI50 [31]: > 10 µM (inactive)
GI50 [32]: > 10 µM (inactive)
GI50 [33]: > 10 µM (inactive)
GI50 [34]: > 10 µM (inactive)
GI50 [35]: > 10 µM (inactive)
GI50 [54]: > 10 µM (inactive)
GI50 [36]: > 10 µM (inactive)
GI50 [37]: > 10 µM (inactive)
GI50 [38]: > 10 µM (inactive)
GI50 [39]: > 10 µM (inactive)
GI50 [40]: > 10 µM (inactive)
GI50 [41]: > 10 µM (inactive)
GI50 [42]: > 10 µM (inactive)
GI50 [43]: > 10 µM (inactive)
GI50 [44]: > 10 µM (inactive)
GI50 [45]: > 10 µM (inactive)
GI50 [46]: > 10 µM (inactive)
GI50 [47]: > 10 µM (inactive)
GI50 [48]: > 10 µM (inactive)
GI50 [49]: > 10 µM (inactive)
GI50 [55]: > 10 µM (inactive)
GI50 [50]: > 10 µM (inactive)
GI50 [56]: > 10 µM (inactive)
GI50 [57]: > 10 µM (inactive)
GI50 [58]: > 10 µM (inactive)
